One experiment concerns the target T1, recombinant human MER (Homo sapiens, UniProt Q12866).
T1 construct: purchased Invitrogen
T1 sequence (Q12866 21-999): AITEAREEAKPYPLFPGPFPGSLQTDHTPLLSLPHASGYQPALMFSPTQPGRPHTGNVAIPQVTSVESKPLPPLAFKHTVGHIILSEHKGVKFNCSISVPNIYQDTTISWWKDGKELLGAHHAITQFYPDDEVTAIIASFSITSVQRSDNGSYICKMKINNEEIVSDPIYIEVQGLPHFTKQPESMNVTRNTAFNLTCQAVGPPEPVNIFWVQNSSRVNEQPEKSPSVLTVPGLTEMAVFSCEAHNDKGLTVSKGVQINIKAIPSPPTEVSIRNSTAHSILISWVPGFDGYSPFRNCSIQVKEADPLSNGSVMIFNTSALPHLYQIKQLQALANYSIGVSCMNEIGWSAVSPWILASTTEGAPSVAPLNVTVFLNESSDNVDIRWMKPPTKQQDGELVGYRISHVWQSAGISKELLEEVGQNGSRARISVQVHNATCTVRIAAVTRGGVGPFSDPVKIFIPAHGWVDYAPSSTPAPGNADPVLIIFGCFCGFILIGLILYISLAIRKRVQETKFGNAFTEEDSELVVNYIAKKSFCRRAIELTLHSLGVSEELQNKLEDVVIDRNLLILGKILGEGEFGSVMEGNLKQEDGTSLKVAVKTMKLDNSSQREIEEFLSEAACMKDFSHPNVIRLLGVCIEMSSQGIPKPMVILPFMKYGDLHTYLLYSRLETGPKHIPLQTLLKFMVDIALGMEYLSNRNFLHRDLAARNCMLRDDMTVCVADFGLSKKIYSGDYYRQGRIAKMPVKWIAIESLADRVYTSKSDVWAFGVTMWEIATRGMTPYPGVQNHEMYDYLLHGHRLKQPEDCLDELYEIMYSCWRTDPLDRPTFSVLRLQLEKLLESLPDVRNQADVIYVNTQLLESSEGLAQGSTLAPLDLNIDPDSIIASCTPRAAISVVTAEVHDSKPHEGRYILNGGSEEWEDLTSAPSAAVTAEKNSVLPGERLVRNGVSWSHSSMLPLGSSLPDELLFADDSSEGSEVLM
In words: HTRF KinEASE-TK biochemical potency, MER. The conditions noted are these: 1 nM MER, 700 μM ATP. As to the method: (§1) Purified recombinant human AXL, TYRO3 and MER proteins were purchased from Invitrogen™. 10 nM AXL, 2 nM TYRO3 or MER were incubated with varying concentrations of compounds in 50 mM HEPES, pH 7.4, 10 mM MgCl2, 0.01% BSA, 1 mM DTT and 2% DMSO in a total volume of 20 μl in a 384-well microplate (Corning™ #3640) at RT for 1 h. The AXL, TYRO3 and MER enzymatic reaction was initiated by transferring 10 μl of enzyme and compound mixture into 10 μl of 1.6 μM TK Substrate-biotin (HTRF® KinEASE-TK kit, Cisbio) and 1400 μM ATP pre-incubated in 50 mM HEPES, pH 7.4, 10 mM MgCl2, 0.01% BSA, 1 mM DTT in a 384-well microplate (Corning™ #3640) at RT, giving the final reaction conditions: 5 nM AXL, 1 nM TYRO3 or MER, 800 nM TK Substrate-biotin and 700 μM ATP in 50 mM HEPES, pH 7.4, 10 mM MgCl2, 0.01% BSA, 1 mM DTT and 1% DMSO with varying concentrations of compounds. Following 2 h incubation at RT, the AXL, TYRO3 and MER enzymatic reaction was stopped by transfer of 10 μl of reaction into 10 μl of detection mix (400 nM Streptavidin-XL665, 200-fold dilution TK Antibody-Cryptate and detection buffer, HTRF® KinEASE-TK kit, Cisbio) in a white 384-well microplate (Perkin Elmer, OptiPlate 384). After 1 h incubation at RT, the plate was put into a plate reader (Evision) to read at 665/620 nm (acceptor/donor) for HTRF. The value of the DMSO blank (MIN inhibition=100% activity) was used as a negative control. The positive control was established by adding 5 μl of enzyme and DMSO mixture into 10 μl of detection mix followed by addition of 5 μl of TK Substrate-biotin and ATP mixture (MAX inhibition=0% activity). To calculate the percent activity, Equation 1 was used. Ratio665/620 is the value at a given compound concentration: […]

A further experiment addresses T2, recombinant human TYRO3 (Homo sapiens, UniProt Q06418).
T2 construct: purchased Invitrogen
T2 sequence (Q06418 41-890): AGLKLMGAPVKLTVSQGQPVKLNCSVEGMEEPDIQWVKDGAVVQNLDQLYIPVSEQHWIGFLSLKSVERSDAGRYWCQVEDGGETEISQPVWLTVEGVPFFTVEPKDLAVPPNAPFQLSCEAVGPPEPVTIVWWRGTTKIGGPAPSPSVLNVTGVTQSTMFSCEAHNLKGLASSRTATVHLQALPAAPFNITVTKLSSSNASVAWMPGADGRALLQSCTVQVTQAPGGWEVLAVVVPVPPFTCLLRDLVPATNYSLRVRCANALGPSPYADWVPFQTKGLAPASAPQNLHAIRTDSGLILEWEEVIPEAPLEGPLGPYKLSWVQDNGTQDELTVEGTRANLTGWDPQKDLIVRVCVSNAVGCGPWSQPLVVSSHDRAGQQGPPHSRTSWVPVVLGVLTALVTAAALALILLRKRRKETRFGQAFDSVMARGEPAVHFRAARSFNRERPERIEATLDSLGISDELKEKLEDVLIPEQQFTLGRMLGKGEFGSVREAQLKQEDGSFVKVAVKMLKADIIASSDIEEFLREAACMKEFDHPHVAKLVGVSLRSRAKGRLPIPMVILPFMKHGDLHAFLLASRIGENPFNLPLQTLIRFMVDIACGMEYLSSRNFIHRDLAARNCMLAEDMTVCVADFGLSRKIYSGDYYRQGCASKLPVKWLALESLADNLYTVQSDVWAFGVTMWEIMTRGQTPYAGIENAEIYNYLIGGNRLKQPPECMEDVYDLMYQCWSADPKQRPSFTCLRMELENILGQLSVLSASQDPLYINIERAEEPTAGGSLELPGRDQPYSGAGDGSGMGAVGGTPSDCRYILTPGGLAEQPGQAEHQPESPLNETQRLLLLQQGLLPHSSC
In words: HTRF KinEASE-TK biochemical potency, TYRO3. The conditions noted are these: 1 nM TYRO3, 700 μM ATP. As for the experimental part: as §1
For orientation: Time-resolved FRET reads energy transfer from a long-lived donor to a nearby acceptor.

`CC(C)C(=O)N1CCc2ccc(-c3cnc4[nH]nc(-c5ccc6c(c5)OCCNC6=O)c4c3)cc2CC1` [Example 16, 8-{5-[3-(2-Methylpropanoyl)-2,3,4,5-tetrahydro-1H-3-benzazepin-7-yl]-1H-pyrazolo[3,4-b]pyridin-3-yl}-2,3,4,5-tetrahydro-1,4-benzoxazepin-5-one]: the IC50 – broadly, the midpoint of a concentration-inhibition curve – at recombinant human MER was 100 to 1000 nM; at recombinant human TYRO3, below 100 nM.
Turning to `O=C1NCCOc2cc(-c3n[nH]c4ncc(-c5ccc6c(c5)CCN(C(=O)C5CC5)CC6)cc34)ccc21` [Example 17, 8-[5-(3-Cyclopropanecarbonyl-2,3,4,5-tetrahydro-1H-3-benzazepin-7-yl)-1H-pyrazolo[3,4-b]pyridin-3-yl]-2,3,4,5-tetrahydro-1,4-benzoxazepin-5-one], the IC50 on recombinant human MER and on recombinant human TYRO3 was below 100 nM throughout.
For `CC(C)(O)C(=O)N1CCc2ccc(-c3cnc4[nH]nc(-c5ccc6c(c5)OCCNC6=O)c4c3)cc2CC1` [Example 19, 8-(5-(3-(2-Hydroxy-2-methylpropanoyl)-2,3,4,5-tetrahydro-1H-benzo[d]azepin-7-yl)-1H-pyrazolo[3,4-b]pyridin-3-yl)-3,4-dihydrobenzo[f][1,4]oxazepin-5(2H)-one], the IC50 on recombinant human MER is 100 to 1000 nM; at recombinant human TYRO3 it was below 100 nM.
The matching figures for `O=C1NCCOc2cc(-c3n[nH]c4ncc(-c5ccc6c(c5)CCN(C5CC5)CC6)cc34)ccc21` [Example 20, 8-(5-(3-Cyclopropyl-2,3,4,5-tetrahydro-1H-benzo[d]azepin-7-yl)-1H-pyrazolo[3,4-b]pyridin-3-yl)-3,4-dihydrobenzo[f][1,4]oxazepin-5(2H)-one]: 100 to 1000 nM and below 100 nM.
Take `O=C1NCCOc2cc(-c3n[nH]c4ncc(-c5ccc6c(c5)CCN(C5CC5)C6)cc34)ccc21` [Example 21, 8-(5-(2-Cyclopropyl-1,2,3,4-tetrahydroisoquinolin-6-yl)-1H-pyrazolo[3,4-b]pyridin-3-yl)-3,4-dihydrobenzo[f][1,4]oxazepin-5(2H)-one]: the IC50 at recombinant human MER and at recombinant human TYRO3 was 100 to 1000 nM in each case.
Consider `CC1(N2CCCC2)CCc2ccc(-c3cnc4[nH]nc(-c5ccc6c(c5)OCCNC6=O)c4c3)cc2CC1` (stereo not shown) [Example 22, 8-{5-[7-Methyl-7-(pyrrolidin-1-yl)-6,7,8,9-tetrahydro-5H-benzo[7]annulen-2-yl]-1H-pyrazolo[3,4-b]pyridin-3-yl}-2,3,4,5-tetrahydro-1,4-benzoxazepin-5-one], for which the IC50 on recombinant human MER and on recombinant human TYRO3 was below 100 nM in each case.
As for `C[C@@H]1CCCN1C1(C)CCc2ccc(-c3cnc4[nH]nc(-c5ccc6c(c5)OCCNC6=O)c4c3)cc2CC1` (stereo partly drawn) [Example 23, 8-(5-{7-Methyl-7-[(2R)-2-methylpyrrolidin-1-yl]-6,7,8,9-tetrahydro-5H-benzo[7]annulen-2-yl}-1H-pyrazolo[3,4-b]pyridin-3-yl)-2,3,4,5-tetrahydro-1,4-benzoxazepin-5-one], the IC50 at recombinant human MER and at recombinant human TYRO3 was below 100 nM in each case.
For `C[C@H]1CCCN1C1(C)CCc2ccc(-c3cnc4[nH]nc(-c5ccc6c(c5)OCCNC6=O)c4c3)cc2CC1` (stereo partly drawn) [Example 24, 8-(5-{7-Methyl-7-[(2S)-2-methylpyrrolidin-1-yl]-6,7,8,9-tetrahydro-5H-benzo[7]annulen-2-yl}-1H-pyrazolo[3,4-b]pyridin-3-yl)-2,3,4,5-tetrahydro-1,4-benzoxazepin-5-one], the IC50 at recombinant human MER and at recombinant human TYRO3 was below 100 nM in each case.
For `CC[C@@H]1CCCN1C1CCc2ccc(-c3cnc4[nH]nc(-c5ccc6c(c5)OCCNC6=O)c4c3)cc2CC1` (stereo partly drawn) [Example 25, 8-(5-{7-[(2R)-2-Ethylpyrrolidin-1-yl]-6,7,8,9-tetrahydro-5H-benzo[7]annulen-2-yl}-1H-pyrazolo[3,4-b]pyridin-3-yl)-2,3,4,5-tetrahydro-1,4-benzoxazepin-5-one], the IC50 at recombinant human MER and on recombinant human TYRO3 was below 100 nM each time.
On to `CC1(O)CCOc2cc(-c3n[nH]c4ncc(-c5ccc6c(c5)CCN(C5CCCC5)CC6)cc34)ccc21` (stereo not shown) [Example 26, 7-[5-(3-Cyclopentyl-2,3,4,5-tetrahydro-1H-3-benzazepin-7-yl)-1H-pyrazolo[3,4-b]pyridin-3-yl]-4-methyl-3,4-dihydro-2H-1-benzopyran-4-ol], for which the IC50 at recombinant human MER was 100 to 1000 nM; at recombinant human TYRO3 it was below 100 nM.
`CC1(O)CCCCc2cc(-c3n[nH]c4ncc(-c5ccc6c(c5)CCN(C5CCCC5)CC6)cc34)ccc21` (stereo not shown) [Example 27, 2-[5-(3-Cyclopentyl-2,3,4,5-tetrahydro-1H-3-benzazepin-7-yl)-1H-pyrazolo[3,4-b]pyridin-3-yl]-5-methyl-6,7,8,9-tetrahydro-5H-benzo[7]annulen-5-ol]: the results for the IC50 at recombinant human MER and at recombinant human TYRO3 were above 1000 nM and 100 to 1000 nM, respectively.
In the case of `CC1(O)CCCOc2cc(-c3n[nH]c4ncc(-c5ccc6c(c5)CCN(C5CCCC5)CC6)cc34)ccc21` (stereo not shown) [Example 28, (8-[5-(3-Cyclopentyl-2,3,4,5-tetrahydro-1H-3-benzazepin-7-yl)-1H-pyrazolo[3,4-b]pyridin-3-yl]-5-methyl-2,3,4,5-tetrahydro-1-benzoxepin-5-ol)], the IC50 at recombinant human MER and on recombinant human TYRO3 was 100 to 1000 nM each time.
Turning to `C[C@@H]1CCCN1C1CCc2ccc(-c3cnc4[nH]nc(-c5ccc6c(c5)OCCC6(C)O)c4c3)cc2CC1` (stereo partly drawn) [Example 29, 4-Methyl-7-(5-{7-[(2R)-2-Methylpyrrolidin-1-yl]-6,7,8,9-tetrahydro-5H-benzo[7]annulen-2-yl}-1H-pyrazolo[3,4-b]pyridin-3-yl)-3,4-dihydro-2H-1-benzopyran-4-ol], the IC50 at recombinant human MER was 100 to 1000 nM; on recombinant human TYRO3 it was below 100 nM.
Taken in the same sequence, the figures for `CC1(O)CCc2cc(-c3n[nH]c4ncc(-c5ccc6c(c5)CC[C@@H](N5CCCC5)CC6)cc34)ccc21` (stereo partly drawn) [Example 30, 1-Methyl-5-{5-[(7S)-7-(pyrrolidin-1-yl)-6,7,8,9-tetrahydro-5H-benzo[7]annulen-2-yl]-1H-pyrazolo[3,4-b]pyridin-3-yl}-2,3-dihydro-1H-inden-1-ol] were 100 to 1000 nM and below 100 nM.

The values above are taken from patent US20240226115A1, “AXL INHIBITOR COMPOUNDS” (ARCUS BIOSCIENCES, INC., priority 2021, published 2024).
